How the values were obtained:
[1] = target: Glycine receptor (Rattus norvegicus, UniProt P07727+P20781+P22771+P24524); assay type: cell membranes, Wistar, Spinal cord, Membrane
[2] = target: T1, Androgen receptor (Rattus norvegicus, UniProt P15207)
T1 sequence (P15207 whole entry): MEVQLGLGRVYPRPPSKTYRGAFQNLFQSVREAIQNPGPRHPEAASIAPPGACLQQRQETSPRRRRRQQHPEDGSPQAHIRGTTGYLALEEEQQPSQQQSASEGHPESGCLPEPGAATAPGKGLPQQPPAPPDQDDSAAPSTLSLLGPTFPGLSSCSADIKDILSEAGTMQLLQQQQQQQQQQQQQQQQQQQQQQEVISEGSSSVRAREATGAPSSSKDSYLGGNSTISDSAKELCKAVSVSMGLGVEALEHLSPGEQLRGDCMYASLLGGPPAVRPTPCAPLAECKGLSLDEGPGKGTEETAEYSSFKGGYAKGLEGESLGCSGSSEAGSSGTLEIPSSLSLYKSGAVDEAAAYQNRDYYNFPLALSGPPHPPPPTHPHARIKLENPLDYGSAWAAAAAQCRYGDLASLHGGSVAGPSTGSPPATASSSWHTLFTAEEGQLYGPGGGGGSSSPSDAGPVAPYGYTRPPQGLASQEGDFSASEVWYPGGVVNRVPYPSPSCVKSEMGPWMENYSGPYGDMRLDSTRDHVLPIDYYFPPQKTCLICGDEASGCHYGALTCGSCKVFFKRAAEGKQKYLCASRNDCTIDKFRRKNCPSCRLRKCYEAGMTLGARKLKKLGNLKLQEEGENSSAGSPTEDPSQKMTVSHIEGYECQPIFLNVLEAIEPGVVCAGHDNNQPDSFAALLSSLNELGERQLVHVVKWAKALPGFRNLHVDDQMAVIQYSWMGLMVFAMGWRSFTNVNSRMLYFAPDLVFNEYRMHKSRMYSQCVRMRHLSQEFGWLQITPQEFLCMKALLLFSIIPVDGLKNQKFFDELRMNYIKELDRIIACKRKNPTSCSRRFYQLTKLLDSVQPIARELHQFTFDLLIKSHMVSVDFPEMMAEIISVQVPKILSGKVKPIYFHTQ

[3] = target: Voltage-gated inwardly rectifying potassium channel KCNH2 (Homo sapiens, UniProt Q12809)
Voltage-gated inwardly rectifying potassium channel KCNH2, sequence (Q12809 whole entry): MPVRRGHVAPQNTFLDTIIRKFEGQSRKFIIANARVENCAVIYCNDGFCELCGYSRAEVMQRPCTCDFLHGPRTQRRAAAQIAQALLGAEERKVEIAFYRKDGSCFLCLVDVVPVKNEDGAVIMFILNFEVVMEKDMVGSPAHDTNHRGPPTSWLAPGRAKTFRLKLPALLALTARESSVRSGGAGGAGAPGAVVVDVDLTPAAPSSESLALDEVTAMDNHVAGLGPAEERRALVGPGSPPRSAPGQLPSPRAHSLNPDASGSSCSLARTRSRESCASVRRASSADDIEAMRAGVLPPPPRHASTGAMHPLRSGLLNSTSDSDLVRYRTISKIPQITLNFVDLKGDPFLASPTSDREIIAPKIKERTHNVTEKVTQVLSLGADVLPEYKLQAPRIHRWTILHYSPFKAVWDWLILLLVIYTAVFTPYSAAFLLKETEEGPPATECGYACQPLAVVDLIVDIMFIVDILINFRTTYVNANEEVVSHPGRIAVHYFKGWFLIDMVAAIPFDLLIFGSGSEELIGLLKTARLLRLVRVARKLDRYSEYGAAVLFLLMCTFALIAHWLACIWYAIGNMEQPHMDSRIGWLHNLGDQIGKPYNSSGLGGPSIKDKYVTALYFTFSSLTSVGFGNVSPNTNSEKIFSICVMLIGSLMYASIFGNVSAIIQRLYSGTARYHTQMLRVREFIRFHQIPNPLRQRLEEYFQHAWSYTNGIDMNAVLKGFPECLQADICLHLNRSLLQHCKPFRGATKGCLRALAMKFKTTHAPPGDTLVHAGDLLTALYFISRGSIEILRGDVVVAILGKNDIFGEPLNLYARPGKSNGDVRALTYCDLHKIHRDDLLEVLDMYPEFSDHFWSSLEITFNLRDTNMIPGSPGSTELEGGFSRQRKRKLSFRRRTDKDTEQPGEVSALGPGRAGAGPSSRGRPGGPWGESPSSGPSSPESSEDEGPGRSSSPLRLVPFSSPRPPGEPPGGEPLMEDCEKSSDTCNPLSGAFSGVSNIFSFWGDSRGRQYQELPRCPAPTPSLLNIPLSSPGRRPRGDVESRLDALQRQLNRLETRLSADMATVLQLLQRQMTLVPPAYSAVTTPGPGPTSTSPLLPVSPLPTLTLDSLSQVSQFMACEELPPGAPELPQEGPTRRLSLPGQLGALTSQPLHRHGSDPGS

Glycine receptor, sequence (P22771 whole entry): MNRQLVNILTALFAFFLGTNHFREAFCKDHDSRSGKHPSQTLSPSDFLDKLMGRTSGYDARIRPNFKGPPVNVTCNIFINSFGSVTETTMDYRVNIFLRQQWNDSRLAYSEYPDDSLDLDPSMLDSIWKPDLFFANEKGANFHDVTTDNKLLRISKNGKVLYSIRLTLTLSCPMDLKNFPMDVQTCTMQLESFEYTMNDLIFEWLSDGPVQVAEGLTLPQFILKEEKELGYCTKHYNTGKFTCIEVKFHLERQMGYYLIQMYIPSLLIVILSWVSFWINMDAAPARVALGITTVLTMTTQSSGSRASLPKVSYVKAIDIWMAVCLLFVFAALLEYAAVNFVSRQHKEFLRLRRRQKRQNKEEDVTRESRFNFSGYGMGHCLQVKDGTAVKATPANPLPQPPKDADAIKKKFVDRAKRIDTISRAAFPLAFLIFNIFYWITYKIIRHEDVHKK
Glycine receptor, sequence (P24524 whole entry): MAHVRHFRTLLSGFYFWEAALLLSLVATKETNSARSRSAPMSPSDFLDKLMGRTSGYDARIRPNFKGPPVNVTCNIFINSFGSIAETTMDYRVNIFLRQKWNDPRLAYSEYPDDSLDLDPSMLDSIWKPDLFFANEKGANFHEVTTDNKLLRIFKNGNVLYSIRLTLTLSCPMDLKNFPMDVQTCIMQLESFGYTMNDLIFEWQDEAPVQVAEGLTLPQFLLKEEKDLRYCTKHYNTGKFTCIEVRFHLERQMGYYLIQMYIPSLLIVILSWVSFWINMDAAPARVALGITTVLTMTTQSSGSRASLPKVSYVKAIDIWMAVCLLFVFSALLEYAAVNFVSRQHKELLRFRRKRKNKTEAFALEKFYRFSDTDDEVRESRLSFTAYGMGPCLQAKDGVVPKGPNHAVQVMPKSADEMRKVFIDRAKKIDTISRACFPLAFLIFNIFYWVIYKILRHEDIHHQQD
Glycine receptor, sequence (P07727 whole entry): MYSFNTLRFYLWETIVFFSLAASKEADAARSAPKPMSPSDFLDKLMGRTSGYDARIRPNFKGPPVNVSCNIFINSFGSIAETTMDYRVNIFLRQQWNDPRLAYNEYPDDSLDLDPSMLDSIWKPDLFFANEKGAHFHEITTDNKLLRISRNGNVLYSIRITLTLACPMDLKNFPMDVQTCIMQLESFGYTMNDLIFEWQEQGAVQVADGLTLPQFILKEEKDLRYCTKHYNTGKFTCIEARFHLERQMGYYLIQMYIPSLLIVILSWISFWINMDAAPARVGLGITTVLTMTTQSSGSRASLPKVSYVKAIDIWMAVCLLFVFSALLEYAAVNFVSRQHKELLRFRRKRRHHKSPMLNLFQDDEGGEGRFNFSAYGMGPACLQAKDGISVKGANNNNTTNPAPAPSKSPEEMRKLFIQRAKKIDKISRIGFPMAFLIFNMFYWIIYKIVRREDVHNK
Glycine receptor, sequence (P20781 whole entry): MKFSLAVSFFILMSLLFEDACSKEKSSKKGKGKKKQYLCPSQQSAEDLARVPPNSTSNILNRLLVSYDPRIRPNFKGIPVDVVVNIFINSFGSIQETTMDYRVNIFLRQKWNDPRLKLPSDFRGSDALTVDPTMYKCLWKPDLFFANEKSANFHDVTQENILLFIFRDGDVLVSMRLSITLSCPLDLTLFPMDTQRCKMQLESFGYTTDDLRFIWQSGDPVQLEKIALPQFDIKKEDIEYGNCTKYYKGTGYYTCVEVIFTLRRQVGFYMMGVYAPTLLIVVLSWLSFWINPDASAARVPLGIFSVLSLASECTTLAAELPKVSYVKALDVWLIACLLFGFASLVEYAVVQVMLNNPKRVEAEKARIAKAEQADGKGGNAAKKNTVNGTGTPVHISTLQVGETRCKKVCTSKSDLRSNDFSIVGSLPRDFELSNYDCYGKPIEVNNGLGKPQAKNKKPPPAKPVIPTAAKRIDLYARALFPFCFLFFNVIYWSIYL

SMILES	IC50 [2]	Ki [2]	IC50 [3]	Ki [3]	also measured
CC[C@H](C)[C@H]1O[C@]2(C=C[C@@H]1C)C[C@@H]1C[C@@H](C/C=C(\C)[C@@H](O[C@H]3C[C@H](OC)[C@@H](O[C@H]4C[C@H](OC)[C@@H](O)[C@H](C)O4)[C@H](C)O3)[C@@H](C)/C=C/C=C3\CO[C@@H]4[C@H](O)C(C)=C[C@@H](C(=O)O1)[C@]34O)O2.CO[C@H]1C[C@H](O[C@H]2[C@H](C)O[C@@H](O[C@@H]3/C(C)=C/C[C@@H]4C[C@@H](C[C@]5(C=C[C@H](C)[C@@H](C(C)C)O5)O4)OC(=O)[C@@H]4C=C(C)[C@@H](O)[C@H]5OC/C(=C\C=C\[C@@H]3C)[C@]54O)C[C@@H]2OC)O[C@@H](C)[C@@H]1O [ABAMECTIN]					IC50 [1]: 0.132 µM; Ki [1]: 0.075 µM
CCC(=O)O[C@]1(C(=O)CCl)[C@@H](C)C[C@H]2[C@@H]3CCC4=CC(=O)C=C[C@]4(C)[C@@]3(F)[C@@H](O)C[C@@]21C [CLOBETASOL PROPIONATE]	3.78 µM	2.52 µM			
Oc1c(Cl)cc(Cl)c(Cl)c1Cc1c(O)c(Cl)cc(Cl)c1Cl [HEXACHLOROPHENE]	4.98 µM	3.32 µM			
CCN(CC)CCOCCC1=CCC2CC1C2(C)C (stereo not given) [MYRTECAINE]			5.9 µM	4.84 µM	
COc1cc2nc(N3CCN(C(=O)c4ccco4)CC3)nc(N)c2cc1OC [PRAZOSIN]			24.3 µM	19.9 µM	
